Molecular target: T1, MAGL (Homo sapiens, UniProt Q99685)
T1 sequence (Q99685 1-303): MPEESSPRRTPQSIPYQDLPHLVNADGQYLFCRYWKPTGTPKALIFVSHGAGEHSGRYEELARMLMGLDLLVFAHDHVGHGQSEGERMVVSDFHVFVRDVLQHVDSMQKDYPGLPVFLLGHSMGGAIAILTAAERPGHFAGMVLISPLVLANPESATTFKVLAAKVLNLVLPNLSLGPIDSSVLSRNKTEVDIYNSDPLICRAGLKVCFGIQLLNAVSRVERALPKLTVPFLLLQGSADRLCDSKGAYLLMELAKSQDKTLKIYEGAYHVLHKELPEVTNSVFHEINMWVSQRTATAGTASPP
Assay: 2-AG assay (MAGL inhibitory activity, hydrolysis of 2-arachidonoylglycerol to arachidonic acid followed by mass spectrometry)
Assay type: biochemical
Conditions: 8 μM 2-arachidonoylglycerol, 15 min pre-incubation, 30 min incubation at RT, RapidFire MS readout
Method in brief: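 Arachidonic acid released from 8 μM 2-arachidonoylglycerol was quantified by online SPE triple-quadrupole MS (negative ESI, 303.1→259.1), normalised to d8-arachidonic acid internal standard. Reaction ran 30 min at RT after 15 min RT compound pre-incubation with […] MAGL in TRIS/EDTA/Tween-20 buffer, 2.5% DMSO.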

Structure (SMILES) | IC50 [nM]
CS(=O)(=O)c1cncc(CC2CC3(C2)CN(C(=O)N2CC4(CC(n5cnc(C6CC6)n5)C4)C2)C3)c1 [Example 489, [6-(3-cyclopropyl-1,2,4-triazol-1-yl)-2-azaspiro[3.3]heptan-2-yl]-[6-[(5-methylsulfonyl-3-pyridyl)methyl]-2-azaspiro[3.3]heptan-2-yl]methanone] | 3.28
O=C(N1CC(/C=C/c2cccc(F)c2)C1)N1CC2(CC(n3cnc(C4CC4)n3)C2)C1 [Example 509, [6-(3-cyclopropyl-1,2,4-triazol-1-yl)-2-azaspiro[3.3]heptan-2-yl]-[3-[(E)-2-(3-fluorophenyl)vinyl]azetidin-1-yl]methanone] | 40.9
O=C(N1CC(c2ccc(N3CC[C@H](C(F)(F)F)C3)nc2)C1)N1CC2(CC(n3cnc(C(F)(F)F)n3)C2)C1 [Example 426, [3-[6-[(3S)-3-(trifluoromethyl)pyrrolidin-1-yl]-3-pyridyl]azetidin-1-yl]-[6-[3-(trifluoromethyl)-1,2,4-triazol-1-yl]-2-azaspiro[3.3]heptan-2-yl]methanone] | 0.7
CC(C)(C)c1nc(C2CN(C(=O)N3CC4(CC(n5cnc(C6CC6)n5)C4)C3)C2)cs1 [Example 87, [3-(2-tert-butylthiazol-4-yl)azetidin-1-yl]-[6-(3-cyclopropyl-1,2,4-triazol-1-yl)-2-azaspiro[3.3]heptan-2-yl]methanone] | 6.5
O=C(N1CC2(CCC(Cc3ncc(F)cc3F)C2)C1)N1CC2(CC(n3cnc(C4(O)CC4)n3)C2)C1 (centres unmarked) [Example 388, [6-[(3,5-difluoro-2-pyridyl)methyl]-2-azaspiro[3.4]octan-2-yl]-[6-[3-(1-hydroxycyclopropyl)-1,2,4-triazol-1-yl]-2-azaspiro[3.3]heptan-2-yl]methanone] | 8.72
N#Cc1cccc(S(=O)(=O)N2CC3(CN(C(=O)N4CC5(CC(n6cnc(C7CC7)n6)C5)C4)C3)C2)c1 [Example 287, 3-[[6-[6-(3-cyclopropyl-1,2,4-triazol-1-yl)-2-azaspiro[3.3]heptane-2-carbonyl]-2,6-diazaspiro[3.3]heptan-2-yl]sulfonyl]benzonitrile] | 59.4
O=C(N1CC(Oc2cccc(C(F)(F)F)c2Cl)C1)N1CC2(CC(n3cnc(C4CC4)n3)C2)C1 [Example 222, (3-(2-chloro-3-(trifluoromethyl)phenoxy)azetidin-1-yl)(6-(3-cyclopropyl-1H-1,2,4-triazol-1-yl)-2-azaspiro[3.3]heptan-2-yl)methanone] | 2.6
O=C(N1CC2(CC(Oc3cncc(Cl)c3)C2)C1)N1CC2(CC(n3cnc(C4CC4)n3)C2)C1 [Example 82, (6-((5-chloropyridin-3-yl)oxy)-2-azaspiro[3.3]heptan-2-yl)(6-(3-cyclopropyl-1H-1,2,4-triazol-1-yl)-2-azaspiro[3.3]heptan-2-yl)methanone] | 3.7
N#Cc1cc(C(F)(F)F)ncc1O[C@H]1CCC2(C1)CN(C(=O)N1CC3(CC(n4cnc(C5(O)CC5)n4)C3)C1)C2 [Example 387, 5-[[(6S)-2-[6-[3-(1-hydroxycyclopropyl)-1,2,4-triazol-1-yl]-2-azaspiro[3.3]heptane-2-carbonyl]-2-azaspiro[3.4]octan-6-yl]oxy]-2-(trifluoromethyl)pyridine-4-carbonitrile] | 196
O=C(N1CC2(CC(Cc3ccc4[nH]ncc4n3)C2)C1)N1CC2(CC(n3cnc(C4CC4)n3)C2)C1 [Example 357, [6-(3-cyclopropyl-1,2,4-triazol-1-yl)-2-azaspiro[3.3]heptan-2-yl]-[6-(1H-pyrazolo[4,3-b]pyridin-5-ylmethyl)-2-azaspiro[3.3]heptan-2-yl]methanone] | 2.01
O=C(N1CC(c2ccc(-c3nnc(C4(C(F)(F)F)CC4)[nH]3)cc2)C1)N1CC2(CC(n3cnc(C4CC4)n3)C2)C1 [Example 466, [6-(3-cyclopropyl-1,2,4-triazol-1-yl)-2-azaspiro[3.3]heptan-2-yl]-[3-[4-[5-[1-(trifluoromethyl)cyclopropyl]-4H-1,2,4-triazol-3-yl]phenyl]azetidin-1-yl]methanone] | 1.17
O=C(N1C[C@H]2C[C@H](Oc3ccc(OC(F)(F)F)cc3)C[C@H]2C1)N1CC2(CC(n3cnc(C4CC4)n3)C2)C1 [Example 134, [6-(3-cyclopropyl-1,2,4-triazol-1-yl)-2-azaspiro[3.3]heptan-2-yl]-[rac-(3aS,6aR)-5-[4-(trifluoromethoxy)phenoxy]-3,3a,4,5,6,6a-hexahydro-1H-cyclopenta[c]pyrrol-2-yl]methanone] | 4.3
CS(=O)(=O)c1cc(F)ccc1CC1CC2(C1)CN(C(=O)N1CC3(CC(n4cnc(C5CC5)n4)C3)C1)C2 [Example 475, [6-(3-cyclopropyl-1,2,4-triazol-1-yl)-2-azaspiro[3.3]heptan-2-yl]-[6-[(4-fluoro-2-methylsulfonyl-phenyl)methyl]-2-azaspiro[3.3]heptan-2-yl]methanone] | 0.44
COc1cc(F)ccc1S(=O)(=O)N1CC2(CN(C(=O)N3CC4(CC(n5cnc(C6CC6)n5)C4)C3)C2)C1 [Example 290, [6-(3-cyclopropyl-1,2,4-triazol-1-yl)-2-azaspiro[3.3]heptan-2-yl]-[2-(4-fluoro-2-methoxy-phenyl)sulfonyl-2,6-diazaspiro[3.3]heptan-6-yl]methanone] | 70.7
CP(C)(=O)c1ccc(CN2CC3(C2)CN(C(=O)N2CC4(CC(n5cnc(C(F)(F)F)n5)C4)C2)C3)cc1 [Example 379, [6-[(4-dimethyl-phosphorylphenyl)methyl]-2,6-diazaspiro[3.3]heptan-2-yl]-[6-[3-(trifluoromethyl)-1,2,4-triazol-1-yl]-2-azaspiro[3.3]heptan-2-yl]methanone] | 3350
CS(=O)(=O)c1cc(Cl)ccc1-c1ccc(C2CN(C(=O)N3CC4(CC(c5ccc(C(F)(F)F)nc5)C4)C3)C2)cn1 [Example 386, [3-[6-(4-chloro-2-methylsulfonyl-phenyl)-3-pyridyl]azetidin-1-yl]-[6-[6-(trifluoromethyl)-3-pyridyl]-2-azaspiro[3.3]heptan-2-yl]methanone] | 142
CS(=N)(=O)c1cccc(CC2CC3(C2)CN(C(=O)N2CC4(CC(n5cnc(C6CC6)n5)C4)C2)C3)c1 (single isomer, unassigned) [Example 441, [6-(3-cyclopropyl-1,2,4-triazol-1-yl)-2-azaspiro[3.3]heptan-2-yl]-[6-[[3-(methylsulfonimidoyl)phenyl]methyl]-2-azaspiro[3.3]heptan-2-yl]methanone] | 1.97
Cc1cc(C(=O)N2CC3(CC(n4ccc(C5CC5)n4)C3)C2)cnc1OCC1(C(F)(F)F)CC1 [Example 151, [6-(3-cyclopropylpyrazol-1-yl)-2-azaspiro[3.3]heptan-2-yl]-[5-methyl-6-[[1-(trifluoromethyl)cyclopropyl]methoxy]-3-pyridyl]methanone] | 67.1
O=C(N1CC(c2noc(C3(C(F)(F)F)CC3)n2)C1)N1CC2(CC(n3cnc(C4CC4)n3)C2)C1 [Example 140, [6-(3-cyclopropyl-1,2,4-triazol-1-yl)-2-azaspiro[3.3]heptan-2-yl]-[3-[5-[1-(trifluoromethyl)cyclo-propyl]-1,2,4-oxadiazol-3-yl]azetidin-1-yl]methanone] | 61.7
O=C(N1CC(OCc2ccc(S(=O)(=O)C(F)(F)F)cc2)C1)N1CC2(CC(n3cnc(C4CC4)n3)C2)C1 [Example 499, [6-(3-cyclopropyl-1,2,4-triazol-1-yl)-2-azaspiro[3.3]heptan-2-yl]-[3-[[4-(trifluoromethylsulfonyl)phenyl]methoxy]azetidin-1-yl]methanone] | 4.38

— US20240199587A1, “HETEROCYCLIC COMPOUNDS” (Hoffmann-La Roche Inc., priority 2021, published 2024)
